Source: ChEMBL document CHEMBL1146939, “Design, synthesis, and biological evaluations of novel oxindoles as HIV-1 non-nucleoside reverse transcriptase inhibitors. Part 2” (Bioorg Med Chem Lett, 2006)

What was measured:
[1] = system: Human immunodeficiency virus 1; experiment: Antiviral activity against HIV1 in HEK293T cells; assay type: functional, organism-based; details: Human immunodeficiency virus 1, HEK-293T
HEK293 = experiment: Cytotoxicity against HEK293T cells; assay type: functional; details: Homo sapiens
Rattus norvegicus [2] = experiment: AUC in […] rat at 50 mg/kg, po normalized to 1 mg/kg; assay type: ADME, organism-based, Plasma; details: in vivo
Rattus norvegicus [3] = experiment: Cmax in […] rat at 50 mg/kg, po normalized to 1 mg/kg; assay type: ADME, organism-based; set-up: dose 50 mg/kg, route oral; details: in vivo
[4] = Oral bioavailability in […] rat at 50 mg/kg, po; assay type: ADME, organism-based; details: in vivo
[5] = system: Human immunodeficiency virus 1; experiment: Antiviral activity against HIV1 I135T mutant; assay type: functional, organism-based
[6] = system: Human immunodeficiency virus 1; experiment: Antiviral activity against HIV1 Y181C mutant; assay type: functional, organism-based
[7] = system: Human immunodeficiency virus 1; experiment: Antiviral activity against HIV1 Y188L mutant; assay type: functional, organism-based
[8] = system: Human immunodeficiency virus 1; experiment: Antiviral activity against HIV1 F227C mutant; assay type: functional, organism-based
[9] = system: Human immunodeficiency virus 1; experiment: Antiviral activity against HIV1 L100I mutant; assay type: functional, organism-based
[10] = system: Human immunodeficiency virus 1; experiment: Antiviral activity against HIV1 K103N mutant; assay type: functional, organism-based
[11] = system: Human immunodeficiency virus 1; experiment: Antiviral activity against HIV1 V106A mutant; assay type: functional, organism-based
[12] = system: Human immunodeficiency virus 1; experiment: Antiviral activity against HIV1 I135V mutant; assay type: functional, organism-based
[13] = system: Human immunodeficiency virus 1; experiment: Antiviral activity against HIV1 E138K mutant; assay type: functional, organism-based
[14] = system: Human immunodeficiency virus 1; experiment: Antiviral activity against HIV1 V179E mutant; assay type: functional, organism-based
[15] = system: Human immunodeficiency virus 1; experiment: Antiviral activity against HIV1 F227L mutant; assay type: functional, organism-based

Compound `CCc1ccc([C@H]2C[C@]23C(=O)Nc2ccc(Cl)cc23)s1` has an EC50 [1] of 160 nM and a CC50 (HEK293) of over 10000 nM.

`O=C1Nc2ccc(Cl)cc2[C@@]12C[C@@H]2c1ccc(Br)o1` showed an EC50 [1] of 245 nM and a CC50 (HEK293) of over 10000 nM.

Work on `O=C1Nc2ccc(Cl)cc2[C@@]12C[C@@H]2c1ccc(-c2cccc(C(F)(F)F)c2)o1` yielded an EC50 [1] of 5550 nM and a CC50 (HEK293) of over 10000 nM.

`O=C1Nc2ccc(Cl)cc2[C@@]12C[C@@H]2c1cc([N+](=O)[O-])cs1` showed an EC50 [1] of over 10000 nM and a CC50 (HEK293) of over 10000 nM.

Compound `O=C1Nc2ccc(Cl)cc2[C@@]12C[C@@H]2c1cc(Br)cs1` has an EC50 [1] of 1270 nM and a CC50 (HEK293) of over 10000 nM.

`CCOC(=O)[C@H]1C(C)(C)[C@]12C(=O)Nc1ccc(Br)cc12` showed an AUC (Rattus norvegicus [2]) of 0.9 µg·min/mL, a Cmax (Rattus norvegicus [3]) of 17.9 nM and a bioavailability [4] of 27%. For the same compound, the CC50 (HEK293) was over 10000 nM.

`Cn1cccc1-c1cccc([C@H]2C[C@]23C(=O)Nc2ccc(Cl)cc23)n1` showed an EC50 [1] of 557 nM and a CC50 (HEK293) of over 10000 nM.

Compound `Cc1ccnc2c1NC(=O)c1cccnc1N2C1CC1` [NEVIRAPINE] has an EC50 [5] of 207 nM, an EC50 [6] of over 10000 nM and an EC50 [7] of over 10000 nM. For the same compound, the EC50 [8] was 733 nM and the CC50 (HEK293) was over 10000 nM.

`O=C1Nc2ccc(Cl)cc2[C@@]12C[C@@H]2c1ccccc1` gave an EC50 [1] of 244 nM and a CC50 (HEK293) of over 10000 nM.

Work on `O=C1Nc2ccc(Cl)cc2[C@@]12C[C@@H]2c1ccc(Br)cn1` yielded an EC50 [1] of 23 nM and a CC50 (HEK293) of over 10000 nM.

Work on `O=C1Nc2ccc(Cl)cc2[C@@]12C[C@@H]2c1ccccn1` yielded an EC50 [1] of 8 nM, an AUC (Rattus norvegicus [2]) of 5.43 µg·min/mL and a Cmax (Rattus norvegicus [3]) of 68.4 nM. For the same compound, the bioavailability [4] was 46%, the EC50 [9] was 174 nM and the EC50 [10] was over 10000 nM. The EC50 [11] was 259 nM, the EC50 [5] was 127 nM and the EC50 [12] was 26 nM. The EC50 [13] was 45 nM, the EC50 [14] was 898 nM and the EC50 [6] was 3230 nM. It also gave an EC50 [7] of over 10000 nM, an EC50 [8] of 528 nM and a CC50 (HEK293) of over 10000 nM. For the same compound, the EC50 [15] was 13 nM.

For `O=C1Nc2ccc(Cl)cc2[C@@]12C[C@@H]2c1ccc2ccccc2c1`, the EC50 [1] was over 10000 nM and the CC50 (HEK293) was over 10000 nM.

For `O=C1Nc2ccc(Cl)cc2[C@@]12C[C@@H]2c1cccc(-c2cccs2)n1`, the EC50 [1] was 16 nM, the EC50 [9] was 100 nM and the EC50 [10] was 2240 nM. For the same compound, the EC50 [11] was 147 nM, the EC50 [5] was 68 nM and the EC50 [12] was 263 nM. It also gave an EC50 [13] of 38 nM, an EC50 [14] of 60 nM and an EC50 [6] of 63 nM. It also gave an EC50 [7] of 1970 nM, an EC50 [8] of 313 nM and a CC50 (HEK293) of over 10000 nM. The EC50 [15] was 365 nM.

For `Cc1cc([C@H]2C[C@]23C(=O)Nc2ccc(Cl)cc23)oc1C`, the EC50 [1] was 27 nM, the EC50 [9] was 260 nM and the EC50 [10] was over 10000 nM. It also gave an EC50 [11] of 630 nM, an EC50 [5] of 236 nM and an EC50 [12] of 59 nM. The EC50 [13] was 52 nM, the EC50 [14] was 2460 nM and the EC50 [6] was 3070 nM. It also gave an EC50 [7] of over 10000 nM, an EC50 [8] of 957 nM and a CC50 (HEK293) of over 10000 nM. The EC50 [15] was 63 nM.

In the case of `O=C1Nc2ccc(Cl)cc2[C@@]12C[C@@H]2c1ccco1`, the EC50 [1] is reported as 200 nM and the CC50 (HEK293) is reported as over 10000 nM.

`COC(=O)c1cc(OC)cc(OC)c1[C@H]1C[C@]12C(=O)Nc1ccc(Cl)cc12` gave an EC50 [1] of 167 nM and a CC50 (HEK293) of over 10000 nM.

In the case of `CSc1nc([C@H]2C[C@]23C(=O)Nc2ccc(Cl)cc23)ccc1C#N`, the EC50 [1] is reported as 436 nM and the CC50 (HEK293) is reported as over 10000 nM.

`O=C1Nc2ccc(Cl)cc2[C@@]12C[C@@H]2c1cccc(-c2ccccn2)n1` showed an EC50 [1] of 504 nM and a CC50 (HEK293) of over 10000 nM.

Compound `O=C1Nc2ccc(Cl)cc2[C@@]12C[C@@H]2c1ccncc1` has an EC50 [1] of over 10000 nM and a CC50 (HEK293) of over 10000 nM.

`O=C1Nc2ccc(Cl)cc2[C@@]12C[C@@H]2c1nccs1` showed an EC50 [1] of over 10000 nM and a CC50 (HEK293) of over 10000 nM.

Work on `O=C1Nc2ccc(Cl)cc2[C@@]12C[C@@H]2c1cccc(-c2ccco2)n1` yielded an EC50 [1] of 18 nM, an EC50 [9] of 2090 nM and an EC50 [10] of 14300 nM. It also gave an EC50 [11] of 2520 nM, an EC50 [5] of 76 nM and an EC50 [12] of 55 nM. The EC50 [13] was 28 nM, the EC50 [14] was 101 nM and the EC50 [6] was 265 nM. It also gave an EC50 [7] of 23100 nM, an EC50 [8] of 658 nM and a CC50 (HEK293) of 7950 nM. For the same compound, the EC50 [15] was 2350 nM.

`Cc1ccc([C@H]2C[C@]23C(=O)Nc2ccc(Cl)cc23)o1` gave an EC50 [1] of 73 nM and a CC50 (HEK293) of over 10000 nM.

`O=C1Nc2ccc(Cl)cc2[C@@]12C[C@@H]2c1cccnc1` gave an EC50 [1] of over 10000 nM and a CC50 (HEK293) of over 10000 nM.

`COc1c(C)cnc([C@H]2C[C@]23C(=O)Nc2ccc(Cl)cc23)c1C` showed an EC50 [1] of 463 nM and a CC50 (HEK293) of over 10000 nM.

In the case of `O=C1Nc2ccc(Cl)cc2[C@@](C#CC2CC2)(C(F)(F)F)O1` [EFAVIRENZ], the EC50 [5] is reported as 1 nM, the EC50 [6] is reported as 1.1 nM and the EC50 [8] is reported as 8 nM. The CC50 (HEK293) was 10000 nM.

Compound `Cn1nnc([C@H]2C[C@]23C(=O)Nc2ccc(Cl)cc23)n1` has an EC50 [1] of 55 nM and a CC50 (HEK293) of over 10000 nM.
